In article PMC8550792, “Evolution of kinase polypharmacology across HSP90 drug discovery” (Cell Chemical Biology, 2021):

How the values were obtained:
Test in all cases: biochemical
Assay type in all cases: biochemical
382 unique human kinases [1] = molecular target: T1, 382 unique human kinases (Homo sapiens, UniProt P00533); conditions: EGFR, 10 uM; for remaining activity at 10 µM: read-out: % Enzyme Activity (relative to DMSO controls)
T1 construct: purchased Reaction Biology (HotSpot contract assay)

382 unique human kinases [2] = molecular target: T2, 382 unique human kinases (Homo sapiens, UniProt P07949, A883F); conditions: kinase RET (A883F), compound 10 uM; for remaining activity at 10 µM: read-out: % Enzyme Activity (relative to DMSO controls)
T2 construct: purchased Reaction Biology (HotSpot contract assay)

382 unique human kinases [3] = molecular target: T3, 382 unique human kinases (Homo sapiens, UniProt P21802, K641R); conditions: FGFR2 (K641R), 10 uM; for remaining activity at 10 µM: read-out: % Enzyme Activity (relative to DMSO controls)
T3 construct: purchased Reaction Biology (HotSpot contract assay)

382 unique human kinases [4] = molecular target: T4, 382 unique human kinases (Homo sapiens, UniProt Q9UHD2); conditions: kinase TBK1, compound 10 uM; for remaining activity at 10 µM: read-out: % Enzyme Activity (relative to DMSO controls)
T4 construct: purchased Reaction Biology (HotSpot contract assay)
T4 sequence (Q9UHD2 1-729): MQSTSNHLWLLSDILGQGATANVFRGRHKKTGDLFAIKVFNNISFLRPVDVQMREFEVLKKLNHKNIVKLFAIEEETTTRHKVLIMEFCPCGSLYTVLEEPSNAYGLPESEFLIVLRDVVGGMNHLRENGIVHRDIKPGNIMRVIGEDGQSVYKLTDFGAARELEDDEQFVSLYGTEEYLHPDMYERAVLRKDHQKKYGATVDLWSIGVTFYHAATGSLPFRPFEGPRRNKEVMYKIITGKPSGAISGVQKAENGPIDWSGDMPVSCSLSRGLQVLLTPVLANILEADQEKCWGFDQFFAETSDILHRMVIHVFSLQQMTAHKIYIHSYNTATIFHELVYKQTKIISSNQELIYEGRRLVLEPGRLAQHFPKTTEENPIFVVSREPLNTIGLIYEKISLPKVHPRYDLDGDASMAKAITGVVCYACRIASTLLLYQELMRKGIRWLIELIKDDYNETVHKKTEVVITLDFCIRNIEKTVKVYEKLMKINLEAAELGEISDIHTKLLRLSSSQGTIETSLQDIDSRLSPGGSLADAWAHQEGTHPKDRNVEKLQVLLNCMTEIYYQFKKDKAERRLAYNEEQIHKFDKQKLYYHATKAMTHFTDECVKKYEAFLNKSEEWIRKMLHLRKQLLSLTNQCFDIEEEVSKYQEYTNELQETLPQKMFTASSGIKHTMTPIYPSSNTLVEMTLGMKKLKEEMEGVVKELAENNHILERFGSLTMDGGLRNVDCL

382 unique human kinases [5] = molecular target: T5, 382 unique human kinases (Homo sapiens, UniProt O95382); conditions: MEKK6, 10 uM; for remaining activity at 10 µM: read-out: % Enzyme Activity (relative to DMSO controls)
T5 construct: purchased Reaction Biology (HotSpot contract assay)
T5 sequence (O95382 1-1288): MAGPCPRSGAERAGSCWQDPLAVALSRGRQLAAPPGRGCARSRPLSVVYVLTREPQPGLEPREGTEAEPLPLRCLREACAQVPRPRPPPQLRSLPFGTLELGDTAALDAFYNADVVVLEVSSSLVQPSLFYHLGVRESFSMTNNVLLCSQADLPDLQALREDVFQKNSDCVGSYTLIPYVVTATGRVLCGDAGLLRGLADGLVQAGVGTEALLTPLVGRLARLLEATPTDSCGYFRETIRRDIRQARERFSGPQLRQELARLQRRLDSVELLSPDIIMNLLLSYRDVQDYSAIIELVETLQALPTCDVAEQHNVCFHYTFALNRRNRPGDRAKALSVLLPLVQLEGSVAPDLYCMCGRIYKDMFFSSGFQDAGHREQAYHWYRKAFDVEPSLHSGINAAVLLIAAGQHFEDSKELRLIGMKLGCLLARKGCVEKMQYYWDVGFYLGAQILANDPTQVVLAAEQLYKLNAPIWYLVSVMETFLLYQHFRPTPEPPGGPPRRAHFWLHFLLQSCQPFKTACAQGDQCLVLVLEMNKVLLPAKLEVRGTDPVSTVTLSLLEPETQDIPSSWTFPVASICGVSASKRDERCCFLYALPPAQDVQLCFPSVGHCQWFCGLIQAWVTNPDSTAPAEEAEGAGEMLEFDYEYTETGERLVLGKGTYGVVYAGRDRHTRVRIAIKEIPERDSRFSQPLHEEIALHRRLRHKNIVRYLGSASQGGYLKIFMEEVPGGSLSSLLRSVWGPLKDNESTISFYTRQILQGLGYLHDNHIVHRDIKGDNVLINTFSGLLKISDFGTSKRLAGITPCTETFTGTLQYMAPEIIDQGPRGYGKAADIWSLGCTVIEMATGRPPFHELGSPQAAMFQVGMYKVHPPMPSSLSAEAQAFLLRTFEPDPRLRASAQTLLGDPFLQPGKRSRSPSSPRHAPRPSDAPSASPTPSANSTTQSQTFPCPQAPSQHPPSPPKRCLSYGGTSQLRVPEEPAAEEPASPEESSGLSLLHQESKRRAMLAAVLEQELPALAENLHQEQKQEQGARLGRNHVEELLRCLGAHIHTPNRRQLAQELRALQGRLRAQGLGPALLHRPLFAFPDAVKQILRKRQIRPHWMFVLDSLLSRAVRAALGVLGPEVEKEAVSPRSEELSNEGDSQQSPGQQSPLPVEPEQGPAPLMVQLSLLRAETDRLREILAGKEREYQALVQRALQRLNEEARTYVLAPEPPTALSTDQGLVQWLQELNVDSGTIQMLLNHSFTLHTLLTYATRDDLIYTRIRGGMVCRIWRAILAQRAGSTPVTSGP

382 unique human kinases [6] = molecular target: T6, 382 unique human kinases (Homo sapiens, UniProt P07948); conditions: LYN, [ATP] 15 µM, compound 10 uM; for remaining activity at 10 µM: read-out: % Enzyme Activity (relative to DMSO controls)
T6 construct: purchased Reaction Biology (HotSpot contract assay)
T6 sequence (P07948 whole entry): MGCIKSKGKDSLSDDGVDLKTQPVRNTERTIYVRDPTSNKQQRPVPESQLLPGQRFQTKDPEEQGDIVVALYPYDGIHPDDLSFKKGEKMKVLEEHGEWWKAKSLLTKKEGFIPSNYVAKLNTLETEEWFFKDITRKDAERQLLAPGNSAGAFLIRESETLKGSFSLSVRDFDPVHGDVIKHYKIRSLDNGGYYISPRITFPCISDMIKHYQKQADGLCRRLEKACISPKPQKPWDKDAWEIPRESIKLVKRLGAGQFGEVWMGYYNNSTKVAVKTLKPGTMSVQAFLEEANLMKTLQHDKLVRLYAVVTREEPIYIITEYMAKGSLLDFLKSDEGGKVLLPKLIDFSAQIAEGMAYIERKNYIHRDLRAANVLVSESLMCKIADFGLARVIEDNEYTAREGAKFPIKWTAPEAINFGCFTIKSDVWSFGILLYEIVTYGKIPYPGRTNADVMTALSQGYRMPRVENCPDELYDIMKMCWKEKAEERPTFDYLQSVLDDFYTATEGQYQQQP

T1 sequence (P00533 25-1210): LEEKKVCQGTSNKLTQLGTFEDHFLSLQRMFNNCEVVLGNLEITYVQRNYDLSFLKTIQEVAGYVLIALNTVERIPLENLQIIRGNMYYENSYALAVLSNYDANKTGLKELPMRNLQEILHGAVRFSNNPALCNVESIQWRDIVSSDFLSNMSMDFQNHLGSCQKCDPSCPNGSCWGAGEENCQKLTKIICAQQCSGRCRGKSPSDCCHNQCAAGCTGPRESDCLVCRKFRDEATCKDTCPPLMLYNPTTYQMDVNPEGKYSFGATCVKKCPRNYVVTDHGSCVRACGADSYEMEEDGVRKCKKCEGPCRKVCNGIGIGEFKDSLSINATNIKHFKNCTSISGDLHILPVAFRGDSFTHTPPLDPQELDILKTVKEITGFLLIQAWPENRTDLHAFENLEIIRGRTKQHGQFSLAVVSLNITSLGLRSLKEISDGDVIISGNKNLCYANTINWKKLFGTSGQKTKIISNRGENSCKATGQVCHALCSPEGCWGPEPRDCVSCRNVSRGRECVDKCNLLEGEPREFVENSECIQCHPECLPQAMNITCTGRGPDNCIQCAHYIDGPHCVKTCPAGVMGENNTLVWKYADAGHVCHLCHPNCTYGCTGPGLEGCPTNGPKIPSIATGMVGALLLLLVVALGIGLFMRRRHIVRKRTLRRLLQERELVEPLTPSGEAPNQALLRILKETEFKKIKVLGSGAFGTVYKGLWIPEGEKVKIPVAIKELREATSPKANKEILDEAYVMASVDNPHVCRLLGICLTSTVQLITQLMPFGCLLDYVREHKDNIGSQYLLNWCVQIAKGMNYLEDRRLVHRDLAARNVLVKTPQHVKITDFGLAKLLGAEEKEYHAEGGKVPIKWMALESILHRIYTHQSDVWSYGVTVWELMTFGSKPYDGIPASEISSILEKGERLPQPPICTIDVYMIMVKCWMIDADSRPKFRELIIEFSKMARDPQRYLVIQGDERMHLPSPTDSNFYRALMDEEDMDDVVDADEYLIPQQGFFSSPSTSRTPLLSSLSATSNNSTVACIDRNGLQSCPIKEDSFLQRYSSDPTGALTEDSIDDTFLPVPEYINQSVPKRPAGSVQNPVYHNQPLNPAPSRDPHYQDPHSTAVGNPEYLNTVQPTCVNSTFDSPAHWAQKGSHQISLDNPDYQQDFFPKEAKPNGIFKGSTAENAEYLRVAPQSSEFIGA
T2 sequence (P07949 29-1114 A883F): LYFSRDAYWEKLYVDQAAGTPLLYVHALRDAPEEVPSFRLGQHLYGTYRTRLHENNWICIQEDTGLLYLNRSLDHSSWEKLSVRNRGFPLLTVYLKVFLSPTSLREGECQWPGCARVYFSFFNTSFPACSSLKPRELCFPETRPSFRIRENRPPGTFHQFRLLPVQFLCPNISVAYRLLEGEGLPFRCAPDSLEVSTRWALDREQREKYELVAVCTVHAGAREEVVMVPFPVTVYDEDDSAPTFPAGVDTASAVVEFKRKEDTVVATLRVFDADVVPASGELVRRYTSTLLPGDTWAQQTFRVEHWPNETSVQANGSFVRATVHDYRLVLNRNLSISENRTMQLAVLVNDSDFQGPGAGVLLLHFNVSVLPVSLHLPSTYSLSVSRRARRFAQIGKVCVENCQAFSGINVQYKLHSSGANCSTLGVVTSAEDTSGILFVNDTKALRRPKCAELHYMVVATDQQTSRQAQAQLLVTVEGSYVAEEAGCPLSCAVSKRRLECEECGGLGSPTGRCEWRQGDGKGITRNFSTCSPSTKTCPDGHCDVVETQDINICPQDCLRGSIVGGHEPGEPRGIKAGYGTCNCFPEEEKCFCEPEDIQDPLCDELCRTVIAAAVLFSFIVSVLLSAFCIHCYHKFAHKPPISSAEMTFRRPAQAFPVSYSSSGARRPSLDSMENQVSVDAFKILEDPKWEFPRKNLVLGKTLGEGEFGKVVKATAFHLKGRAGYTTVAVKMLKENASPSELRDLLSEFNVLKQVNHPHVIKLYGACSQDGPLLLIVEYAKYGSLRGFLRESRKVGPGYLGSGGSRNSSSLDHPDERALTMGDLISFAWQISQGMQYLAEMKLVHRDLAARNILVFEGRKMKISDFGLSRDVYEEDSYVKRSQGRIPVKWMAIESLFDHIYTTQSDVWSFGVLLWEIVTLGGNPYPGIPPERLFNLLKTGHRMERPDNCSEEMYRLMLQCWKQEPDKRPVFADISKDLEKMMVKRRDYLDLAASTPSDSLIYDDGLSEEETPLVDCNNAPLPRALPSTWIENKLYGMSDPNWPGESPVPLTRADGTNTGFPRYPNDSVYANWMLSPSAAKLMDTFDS
T3 sequence (P21802 22-821 K641R): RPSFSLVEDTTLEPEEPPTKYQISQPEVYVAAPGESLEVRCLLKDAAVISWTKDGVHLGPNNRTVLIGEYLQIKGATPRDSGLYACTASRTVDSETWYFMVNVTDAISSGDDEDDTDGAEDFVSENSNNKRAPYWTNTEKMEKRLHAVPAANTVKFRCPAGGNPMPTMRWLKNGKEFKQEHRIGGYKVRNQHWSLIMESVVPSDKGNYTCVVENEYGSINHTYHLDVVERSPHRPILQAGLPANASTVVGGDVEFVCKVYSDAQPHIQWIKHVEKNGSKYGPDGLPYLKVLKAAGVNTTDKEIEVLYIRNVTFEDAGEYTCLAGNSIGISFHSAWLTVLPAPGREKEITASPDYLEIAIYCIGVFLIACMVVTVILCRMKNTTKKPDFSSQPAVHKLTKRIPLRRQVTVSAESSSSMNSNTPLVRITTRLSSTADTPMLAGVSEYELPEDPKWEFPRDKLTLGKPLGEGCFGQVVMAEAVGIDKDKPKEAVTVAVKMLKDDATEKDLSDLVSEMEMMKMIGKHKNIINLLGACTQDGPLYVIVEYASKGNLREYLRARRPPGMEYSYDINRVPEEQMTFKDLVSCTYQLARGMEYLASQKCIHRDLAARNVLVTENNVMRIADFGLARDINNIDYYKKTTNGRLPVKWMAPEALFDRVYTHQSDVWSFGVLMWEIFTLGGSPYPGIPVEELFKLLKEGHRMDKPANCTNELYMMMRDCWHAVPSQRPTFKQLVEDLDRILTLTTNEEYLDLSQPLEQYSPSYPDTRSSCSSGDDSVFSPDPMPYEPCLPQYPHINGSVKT

Compound | remaining activity at 10 µM (382 unique human kinases [1]) [%] | remaining activity at 10 µM (382 unique human kinases [2]) [%] | remaining activity at 10 µM (382 unique human kinases [3]) [%] | remaining activity at 10 µM (382 unique human kinases [4]) [%] | remaining activity at 10 µM (382 unique human kinases [5]) [%] | remaining activity at 10 µM (382 unique human kinases [6]) [%] | % Enzyme Activity (relative to DMSO controls) (382 unique human kinases [5]) [%] | % Enzyme Activity (relative to DMSO controls) (382 unique human kinases [6]) [%] | % Enzyme Activity (relative to DMSO controls) (382 unique human kinases [1]) [%] | % Enzyme Activity (relative to DMSO controls) (382 unique human kinases [2]) [%] | % Enzyme Activity (relative to DMSO controls) (382 unique human kinases [3]) [%] | % Enzyme Activity (relative to DMSO controls) (382 unique human kinases [4]) [%]
CC(C)c1cc(-c2n[nH]c(=O)n2-c2ccc3c(ccn3C)c2)c(O)cc1O [Ganetespib (STA9090)] | 76 | 83.7 | 78 | 89.4 |  |  |  |  |  |  |  | 
CC(C)c1cc(-c2n[nH]c(=O)n2-c2ccc3c(ccn3C)c2)c(O)cc1O [Ganetespib] |  |  |  |  | 94.2 | 21.7 |  |  |  |  |  | 
CCNC(=O)c1noc(-c2cc(C(C)C)c(O)cc2O)c1-c1ccc(CN2CCOCC2)cc1 [Luminespib] |  |  |  |  | 96 | 39.2 | 94.49 | 38.08 |  |  |  | 
CCNC(=O)c1noc(-c2cc(C(C)C)c(O)cc2O)c1-c1ccc(CN2CCOCC2)cc1 [Luminespib (AUY-922)] | 95.1 | 96.4 | 98.4 | 107 |  |  |  |  | 93.47 | 95.34 | 98.16 | 105.06
